These results are taken from US20260250318A1, “COMPOSITIONS AND METHODS FOR CROSSING THE BLOOD BRAIN BARRIER” (VOYAGER THERAPEUTICS, INC., priority 2022, published 2026).

The test system of experiment [1] is brains, heart, liver, muscle, and DRG of the NHPs. In words: Maturation of TTM-001 and TTM-002 capsids, NGS enrichment in NHP tissues. It counts as in vivo. The note with it: relative to AAV9 control. The gist of the method: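 Variants carry mutations within and flanking the loop IV peptide insert: positions 450–466 were triplet-randomized, while positions 449–466 received low-frequency point mutations. The combined pool went into two NHPs, and each peptide was scored by NGS enrichment ratio against AAV9.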

Another experiment deals with brain. Description: Matured TTM-001 and TTM-002 variants, NGS enrichment in mouse brain. The class given is in vivo, mice. The note with it: relative to AAV9 control.
The mark [2] stands for this setting: NGS fold-enrichment of RNA, NHP brain.
Where [3] appears, read: NGS fold-enrichment, DRG of NHPs.
[4] abbreviates: NGS fold-enrichment, NHP liver DNA.
[5] abbreviates: NGS fold-enrichment, NHP liver RNA.
Where [6] appears, read: NGS fold-enrichment, NHP muscle.
Setting [7] is: NGS fold-enrichment, RNA, brain of NHPs.
The mark [8] stands for this setting: NGS fold-enrichment, heart of NHPs.
[9] abbreviates: NGS fold-enrichment, liver DNA of NHPs.
The mark [10] stands for this setting: NGS fold-enrichment, liver RNA of NHPs.
The mark [11] stands for this setting: NGS fold-enrichment, muscle of NHPs.
The mark [12] stands for this setting: NGS fold-enrichment, brain of mice.
The mark [13] stands for this setting: NGS fold-enrichment, mouse brain.
The mark [14] stands for this setting: NGS fold-enrichment of matured AAV capsid variants, NHP brain, RNA.

Turning to KSINESGSPHSKAQNQQI, the “Fold Enrichment relative to AAV9, Brain (NHP)” value in experiment [1] (setting [2]) and in experiment [1] (setting [7]) was 113.833 fold each time. In addition, the “Fold Enrichment relative to AAV9, DRG (NHP)” value in experiment [1] (setting [3]) came out at 0.000 fold; in experiment [1] (NGS fold-enrichment, NHP DRG), 0.000 fold. Further, the “Fold Enrichment relative to AAV9, Heart (NHP)” value in experiment [1] (NGS fold-enrichment, NHP heart) turned out to be 0.000 fold; in experiment [1] (setting [8]) it was 0.000 fold. The “Fold Enrichment relative to AAV9, Liver DNA (NHP)” value in experiment [1] (setting [4]) and in experiment [1] (setting [9]) was 0.000 fold in each case. Moreover, the “Fold Enrichment relative to AAV9, Liver RNA (NHP)” value in experiment [1] (setting [5]) and in experiment [1] (setting [10]) was 0.000 fold throughout. For the same sequence, the “Fold Enrichment relative to AAV9, Muscle (NHP)” value in experiment [1] (setting [6]) and in experiment [1] (setting [11]) was 0.000 fold each time. The “Fold Enrichment relative to AAV9, Brain (Mouse)” value in the experiment with brain (setting [12]) and in the experiment with brain (setting [13]) was 67.649 fold in each case.
As to KTINGLGSPHSKSQNQQT, in experiment [1] (setting [3]), the “Fold Enrichment relative to AAV9, DRG (NHP)” value stood at 0.000 fold. Moreover, in experiment [1] (setting [7]), the “Fold Enrichment relative to AAV9, Brain (NHP)” value was 62.170 fold. Also, the “Fold Enrichment relative to AAV9, Heart (NHP)” value in experiment [1] (setting [8]) came out at 0.157 fold. The “Fold Enrichment relative to AAV9, Liver DNA (NHP)” value in experiment [1] (setting [9]) was 0.107 fold. For the same sequence, the “Fold Enrichment relative to AAV9, Liver RNA (NHP)” value in experiment [1] (setting [10]) is given as 0.146 fold. Further, the “Fold Enrichment relative to AAV9, Muscle (NHP)” value in experiment [1] (setting [11]) was 0.000 fold. In addition, the “Fold Enrichment relative to AAV9, Brain (Mouse)” value in the experiment on brain (setting [12]) amounted to 64.139 fold.
As for KTEMKHDSPHKSGQNQQT, the “Fold Enrichment relative to AAV9, Brain (NHP)” value in experiment [1] (setting [2]) is given as 240.075 fold. Moreover, the “Fold Enrichment relative to AAV9, DRG (NHP)” value in experiment [1] (NGS fold-enrichment, NHP DRG) was 0.000 fold. Moreover, in experiment [1] (NGS fold-enrichment, NHP heart), the “Fold Enrichment relative to AAV9, Heart (NHP)” value turned out to be 0.000 fold. The “Fold Enrichment relative to AAV9, Liver DNA (NHP)” value in experiment [1] (setting [4]) came to 0.000 fold. Also, the “Fold Enrichment relative to AAV9, Liver RNA (NHP)” value in experiment [1] (setting [5]) is recorded as 0.000 fold. The “Fold Enrichment relative to AAV9, Muscle (NHP)” value in experiment [1] (setting [6]) is reported as 0.000 fold. For the same sequence, in the experiment on brain (setting [13]), the “Fold Enrichment relative to AAV9, Brain (Mouse)” value was determined as 3.183 fold.
KTESASGSPHSKAQNQQT: in experiment [1] (setting [3]), the “Fold Enrichment relative to AAV9, DRG (NHP)” value stood at 0.000 fold. The “Fold Enrichment relative to AAV9, Brain (NHP)” value in experiment [1] (setting [7]) amounted to 68.651 fold. In experiment [1] (setting [8]), the “Fold Enrichment relative to AAV9, Heart (NHP)” value came out at 0.000 fold. In addition, the “Fold Enrichment relative to AAV9, Liver DNA (NHP)” value in experiment [1] (setting [9]) amounted to 0.084 fold. In addition, the “Fold Enrichment relative to AAV9, Liver RNA (NHP)” value in experiment [1] (setting [10]) turned out to be 0.274 fold. The “Fold Enrichment relative to AAV9, Muscle (NHP)” value in experiment [1] (setting [11]) is on record as 0.000 fold. Also, the “Fold Enrichment relative to AAV9, Brain (Mouse)” value with brain (setting [12]) stood at 80.500 fold.
With KTDKGSGSPHSKAQNQQT, the “Fold Enrichment relative to AAV9, Brain (NHP)” value in experiment [1] (setting [2]) amounted to 94.572 fold. The “Fold Enrichment relative to AAV9, DRG (NHP)” value in experiment [1] (NGS fold-enrichment, NHP DRG) is 0.000 fold. Further, the “Fold Enrichment relative to AAV9, Heart (NHP)” value in experiment [1] (NGS fold-enrichment, NHP heart) is listed as 0.037 fold. Moreover, the “Fold Enrichment relative to AAV9, Liver DNA (NHP)” value in experiment [1] (setting [4]) is given as 0.367 fold. Further, the “Fold Enrichment relative to AAV9, Liver RNA (NHP)” value in experiment [1] (setting [5]) worked out at 0.951 fold. Besides, in experiment [1] (setting [6]), the “Fold Enrichment relative to AAV9, Muscle (NHP)” value came out at 0.000 fold. In addition, the “Fold Enrichment relative to AAV9, Brain (Mouse)” value in the experiment with brain (setting [13]) turned out to be 47.888 fold.
KTINGSGSPHSKAQVQQI: in experiment [1] (setting [14]), the “Fold Enrichment relative to AAV9, Brain (NHP)” value came to 57.308 fold. In addition, the “Fold Enrichment relative to AAV9, DRG (NHP)” value in experiment [1] (NHP DRG) was 0.000 fold. Also, the “Fold Enrichment relative to AAV9, Heart (NHP)” value in experiment [1] (NHP heart) is on record as 1.113 fold. The “Fold Enrichment relative to AAV9, Liver DNA (NHP)” value in experiment [1] (NHP liver, DNA) turned out to be 0.113 fold. In addition, in experiment [1] (NHP liver, RNA), the “Fold Enrichment relative to AAV9, Liver RNA (NHP)” value is listed as 0.000 fold. Moreover, the “Fold Enrichment relative to AAV9, Muscle (NHP)” value in experiment [1] (NHP muscle) is recorded as 0.000 fold. The “Fold Enrichment relative to AAV9, Brain (Mouse)” value in the experiment with brain (mouse brain) was 61.957 fold.
For the sequence KNCWGSGSPHSKAQNQQT, the “Fold Enrichment relative to AAV9, Brain (NHP)” value in experiment [1] (setting [14]) is listed as 57.756 fold. Besides, in experiment [1] (NHP DRG), the “Fold Enrichment relative to AAV9, DRG (NHP)” value stood at 0.000 fold. The “Fold Enrichment relative to AAV9, Heart (NHP)” value in experiment [1] (NHP heart) is 0.000 fold. The “Fold Enrichment relative to AAV9, Liver DNA (NHP)” value in experiment [1] (NHP liver, DNA) turned out to be 0.092 fold. The “Fold Enrichment relative to AAV9, Liver RNA (NHP)” value in experiment [1] (NHP liver, RNA) was 0.000 fold. The “Fold Enrichment relative to AAV9, Muscle (NHP)” value in experiment [1] (NHP muscle) amounted to 0.000 fold. In addition, in the experiment with brain (mouse brain), the “Fold Enrichment relative to AAV9, Brain (Mouse)” value is 59.888 fold.
As for KTVNGGGSPHSKSQNQQT, the “Fold Enrichment relative to AAV9, Brain (NHP)” value in experiment [1] (setting [14]) is recorded as 56.114 fold. Also, the “Fold Enrichment relative to AAV9, DRG (NHP)” value in experiment [1] (NHP DRG) is 0.116 fold. In addition, the “Fold Enrichment relative to AAV9, Heart (NHP)” value in experiment [1] (NHP heart) is given as 0.000 fold. The “Fold Enrichment relative to AAV9, Liver DNA (NHP)” value in experiment [1] (NHP liver, DNA) came out at 0.040 fold. In addition, the “Fold Enrichment relative to AAV9, Liver RNA (NHP)” value in experiment [1] (NHP liver, RNA) came out at 0.000 fold. For the same sequence, in experiment [1] (NHP muscle), the “Fold Enrichment relative to AAV9, Muscle (NHP)” value stood at 0.000 fold. Moreover, the “Fold Enrichment relative to AAV9, Brain (Mouse)” value with brain (mouse brain) is 170.548 fold.
As for KTVNGSGSPHSKAQHLQT, the “Fold Enrichment relative to AAV9, Brain (NHP)” value in experiment [1] (setting [14]) was determined as 55.739 fold. Besides, in experiment [1] (NHP DRG), the “Fold Enrichment relative to AAV9, DRG (NHP)” value is recorded as 0.091 fold. Also, the “Fold Enrichment relative to AAV9, Heart (NHP)” value in experiment [1] (NHP heart) stood at 0.036 fold. In experiment [1] (NHP liver, DNA), the “Fold Enrichment relative to AAV9, Liver DNA (NHP)” value was determined as 0.409 fold. In addition, in experiment [1] (NHP liver, RNA), the “Fold Enrichment relative to AAV9, Liver RNA (NHP)” value is on record as 0.062 fold. Also, the “Fold Enrichment relative to AAV9, Muscle (NHP)” value in experiment [1] (NHP muscle) came to 0.000 fold. Besides, the “Fold Enrichment relative to AAV9, Brain (Mouse)” value with brain (mouse brain) turned out to be 62.743 fold.
